According to US20260116920A1, “HUMAN TRANSFERRIN RECEPTOR BINDING PEPTIDE” (PEPTIDREAM INC., priority 2021, published 2026):
Read-outs that look alike come from different tables or passages of the source. Starred links: 1 amine or outer side, 2 acyl side, 3 side chain; linkers in the order of their positions; H or OH if unused. Positions of bridges follow the written chain, without caps; N, C: chain ends. Non-standard residues stand in square brackets, D forms with d. Residues, ends and D or L forms follow the SMILES beside them. Groups on a side chain read outwards from the residue. *: point of attachment. Trp(1-CH2COOH) = N[C@@H](Cc1cn(CC(=O)O)c2ccccc12)C(=O)O; Nle(6-morpholino) = N[C@@H](CCCCN1CCOCC1)C(=O)O; Phe(3-COOH) = N[C@@H](Cc1cccc(C(=O)O)c1)C(=O)O; Trp(7-aza) = N[C@@H](Cc1c[nH]c2ncccc12)C(=O)O; NH(CH2CH2O)8Me = COCCOCCOCCOCCOCCOCCOCCOCCN*; NMePhe(3-Cl) = CN[C@@H](Cc1cccc(Cl)c1)C(=O)O; Piperazinyl(4-CH2COOH) = O=C(O)CN1CCN(*)CC1; 3Pal(6-NH2) = Nc1ccc(C[C@H](N)C(=O)O)cn1; NMeY = CN[C@@H](Cc1ccc(O)cc1)C(=O)O; NH(CH2CH2O)4Me = COCCOCCOCCOCCN*; 3Pal = N[C@@H](Cc1cccnc1)C(=O)O; 4Pal = N[C@@H](Cc1ccncc1)C(=O)O; PEG4 = NCCOCCOCCOCCOCCC(=O)O; Carboxymethyl = O=C(O)C*; CO = O=C([*:1])[*:2]; NHCH2CH2OMe = COCCN*

Target: T1, human transferrin receptor (hTfR) (Homo sapiens, UniProt P02786)
T1 construct: made in house
T1 sequence (P02786 89-760 limits assumed): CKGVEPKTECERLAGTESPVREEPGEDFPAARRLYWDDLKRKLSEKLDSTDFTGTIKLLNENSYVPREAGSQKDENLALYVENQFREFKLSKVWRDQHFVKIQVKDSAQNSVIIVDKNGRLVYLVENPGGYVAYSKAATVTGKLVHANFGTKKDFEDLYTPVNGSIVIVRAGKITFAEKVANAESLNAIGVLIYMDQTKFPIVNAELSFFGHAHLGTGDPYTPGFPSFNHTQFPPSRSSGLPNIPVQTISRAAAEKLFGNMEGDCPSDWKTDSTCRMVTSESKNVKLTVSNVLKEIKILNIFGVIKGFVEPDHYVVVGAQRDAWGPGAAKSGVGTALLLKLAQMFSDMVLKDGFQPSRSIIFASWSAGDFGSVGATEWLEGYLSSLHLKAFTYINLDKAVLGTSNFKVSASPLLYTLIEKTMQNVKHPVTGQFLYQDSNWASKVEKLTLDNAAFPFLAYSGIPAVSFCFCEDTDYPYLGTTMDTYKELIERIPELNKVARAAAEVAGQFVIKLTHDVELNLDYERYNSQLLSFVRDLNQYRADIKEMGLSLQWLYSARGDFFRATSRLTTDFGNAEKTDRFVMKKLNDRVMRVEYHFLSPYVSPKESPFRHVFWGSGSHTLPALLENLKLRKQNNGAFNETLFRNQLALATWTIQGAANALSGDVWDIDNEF
Assay: Evaluation of molecular interaction between transferrin receptor (hTfR) and peptide using surface plasmon resonance (SPR)
Assay type: binding
Outline: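 Recombinant human TfR dimer (0.5 μM) was captured on a Ni-charged NTA chip and amine-coupled with EDC/NHS, then ethanolamine-capped. Peptides at 5–100 nM in HEPES pH 8.0 buffer with 150 mM NaCl, 0.05% Tween 20, 0.1% BSA and 1.0% DMSO were run by single-cycle kinetics; KD came from least-squares curve fitting.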

[1] = surface plasmon resonance, binding to hTfR, KD class symbol, read-out: SPR (KD value)
[2] = KD class for binding to hTfR by SPR, peptide with the linker shown in the same line, 'low signal indicates no activity', read-out: SPR

`CC[C@H](C)[C@@H]1NC(=O)[C@H](Cc2cccnc2)NC(=O)[C@H](Cc2ccc(O)cc2)NC(=O)[C@H](CC(N)=O)NC(=O)[C@H](Cc2c[nH]c3ccccc23)NC(=O)[C@H](C(C)C)NC(=O)[C@H](Cc2cccc(Cl)c2)N(C)C(=O)[C@H](C(C)C)NC(=O)[C@H](C)NC(=O)CSC[C@@H](C(=O)NCCOCCOCCOCCOCCC(N)=O)NC(=O)[C@H](Cc2ccc(O)cc2)N(C)C(=O)[C@H](Cc2ccncc2)NC(=O)[C@H](CCC(N)=O)NC(=O)[C@H](CCC(N)=O)NC(=O)[C@H]([C@@H](C)CC)NC1=O` [compound 67] ({CH2CO}-AV[NMePhe(3-Cl)]VWNY[3Pal]IIQQ[4Pal][NMeY]C[PEG4]-NH2; thioether N-15) was tested, and the Kd [1] was 1 to 100 nM.
Work on `CC[C@H](C)[C@@H]1NC(=O)[C@H](Cc2ccc(O)cc2)NC(=O)[C@H](Cc2ccc(O)cc2)NC(=O)[C@H](CC(N)=O)NC(=O)[C@H](Cc2c[nH]c3ccccc23)N(C)C(=O)[C@H](C(C)C)NC(=O)[C@H](Cc2ccc(F)cc2)N(C)C(=O)[C@H](C(C)C)NC(=O)[C@H](C)NC(=O)CSC[C@@H](C(N)=O)NC(=O)[C@H](Cc2ccc(O)cc2)N(C)C(=O)[C@H](Cc2ccccc2)NC(=O)[C@@H](CCCNC(=N)N)NC(=O)[C@H](CCCCNC(=O)CCOCCOCCOCCOC)NC(=O)[C@H]([C@@H](C)CC)NC1=O` [compound 5] yielded a Kd [1] of 1 to 100 nM.
In the case of `CC[C@H](C)[C@@H]1NC(=O)[C@H](Cc2ccc(OC)cc2)NC(=O)[C@H](Cc2ccc(O)cc2)NC(=O)[C@H](CC(N)=O)NC(=O)[C@H](Cc2c[nH]c3ccccc23)NC(=O)[C@H](C(C)C)NC(=O)[C@H](Cc2cccc(Cl)c2)N(C)C(=O)[C@H](C(C)C)NC(=O)[C@H](C)NC(=O)CSC[C@@H](C(=O)NCC(=O)N[C@@H](CCCCN=[N+]=[N-])C(N)=O)NC(=O)[C@H](Cc2ccc(O)cc2)N(C)C(=O)[C@H](Cc2ccccc2)NC(=O)[C@H](CCCNC(=N)N)NC(=O)[C@H](CCCNC(=N)N)NC(=O)[C@H]([C@@H](C)CC)NC1=O` [compound 11], the Kd [1] is reported as 1 to 100 nM.
`CC[C@H](C)[C@@H]1NC(=O)[C@H](Cc2ccc(OC)cc2)NC(=O)[C@H](Cc2ccc(O)cc2)NC(=O)[C@H](CC(N)=O)NC(=O)[C@H](Cc2cn(CC(=O)O)c3ccccc23)NC(=O)[C@H](C(C)C)NC(=O)[C@H](Cc2cccc(Cl)c2)N(C)C(=O)[C@H](C(C)C)NC(=O)[C@H](C)NC(=O)CSC[C@@H](C(=O)NCCOCCOCCOCCOCCC(N)=O)NC(=O)[C@H](Cc2ccc(O)cc2)N(C)C(=O)[C@H](Cc2cccc(C(=O)O)c2)NC(=O)[C@H](CCCNC(=N)N)NC(=O)[C@H](CCCNC(=N)N)NC(=O)[C@H]([C@@H](C)CC)NC1=O` [894_0336] showed a Kd [2] of 1 to 100 nM.
For `CC[C@H](C)[C@@H]1NC(=O)[C@H](Cc2cccnc2)NC(=O)[C@H](Cc2ccc(O)cc2)NC(=O)[C@H](CC(N)=O)NC(=O)[C@H](Cc2c[nH]c3ccccc23)NC(=O)[C@H](C(C)C)NC(=O)[C@H](Cc2cccc(Cl)c2)N(C)C(=O)[C@H](C(C)C)NC(=O)[C@H](C)NC(=O)CSC[C@@H](C(=O)NCCOCCOCCOCCOCCC(N)=O)NC(=O)[C@H](Cc2ccc(O)cc2)N(C)C(=O)[C@H](Cc2ccncc2)NC(=O)[C@H](CCC(=O)NCCOC)NC(=O)[C@H](CCC(=O)NCCOC)NC(=O)[C@H]([C@@H](C)CC)NC1=O` [894_0326] ({CH2CO}-AV[NMePhe(3-Cl)]VWNY[3Pal]IIE(NHCH2CH2OMe)E(NHCH2CH2OMe)[4Pal][NMeY]C[PEG4]-NH2; thioether N-15), the Kd [2] was 1 to 100 nM.
`CC[C@H](C)[C@@H]1NC(=O)[C@H](Cc2ccc(OCC(=O)O)cc2)NC(=O)[C@H](Cc2ccc(O)cc2)NC(=O)[C@H](CC(N)=O)NC(=O)[C@H](Cc2cn(CC(=O)O)c3ccccc23)NC(=O)[C@H](C(C)C)NC(=O)[C@H](Cc2cccc(Cl)c2)N(C)C(=O)[C@H](C(C)C)NC(=O)[C@H](C)NC(=O)CSC[C@@H](C(=O)NCC(=O)N[C@@H](CCCCN=[N+]=[N-])C(N)=O)NC(=O)[C@H](Cc2ccc(O)cc2)N(C)C(=O)[C@H](Cc2ccccc2)NC(=O)[C@H](CCCNC(=N)N)NC(=O)[C@H](CCC(=O)NCCOCCOCCOCCOCCOCCOCCOCCOC)NC(=O)[C@H]([C@@H](C)CC)NC1=O` [894_3172] gave a Kd [2] of 1 to 100 nM.
Work on `CC[C@H](C)[C@@H]1NC(=O)[C@H](Cc2ccc(OCC(=O)O)cc2)NC(=O)[C@H](Cc2ccc(O)cc2)NC(=O)[C@H](CC(N)=O)NC(=O)[C@H](Cc2c[nH]c3ccccc23)NC(=O)[C@H](C(C)C)NC(=O)[C@H](Cc2cccc(Cl)c2)N(C)C(=O)[C@H](C(C)C)NC(=O)[C@H](C)NC(=O)CSC[C@@H](C(=O)NCCOCCOCCOCCOCCC(N)=O)NC(=O)[C@H](Cc2ccc(O)cc2)N(C)C(=O)[C@H](Cc2ccccc2)NC(=O)[C@H](CCCCNC(=O)N2CCN(CC(=O)O)CC2)NC(=O)[C@H](CCC(=O)NCCOCCOCCOCCOC)NC(=O)[C@H]([C@@H](C)CC)NC1=O` [compound 116] ({CH2CO}-AV[NMePhe(3-Cl)]VWNYY(Carboxymethyl)IIE(NH(CH2CH2O)4Me)K([CO-Piperazinyl(4-CH2COOH)])F[NMeY]C[PEG4]-NH2; thioether N-15) yielded a Kd [1] of 1 to 100 nM.
With `CC[C@H](C)[C@@H]1NC(=O)[C@H](Cc2ccc(OCC(=O)O)cc2)NC(=O)[C@H](Cc2ccc(O)cc2)NC(=O)[C@H](CC(N)=O)NC(=O)[C@H](Cc2cn(CC(=O)O)c3ccccc23)NC(=O)[C@H](C(C)C)NC(=O)[C@H](Cc2cccc(Cl)c2)N(C)C(=O)[C@H](C(C)C)NC(=O)[C@H](C)NC(=O)CSC[C@@H](C(=O)NCC(=O)NCCOCCOCCOCCOCCOCCOCCOCCOCCC(=O)N[C@@H](CCCCN=[N+]=[N-])C(N)=O)NC(=O)[C@H](Cc2ccc(O)cc2)N(C)C(=O)[C@H](Cc2ccccc2)NC(=O)[C@H](CCCNC(=N)N)NC(=O)[C@H](CCCNC(=N)N)NC(=O)[C@H]([C@@H](C)CC)NC1=O` [compound 47] the Kd [1] was 1 to 100 nM.
`CC[C@H](C)[C@@H]1NC(=O)[C@H](Cc2ccc(OCC(=O)O)cc2)NC(=O)[C@H](Cc2ccc(N)nc2)NC(=O)[C@H](CC(N)=O)NC(=O)[C@H](Cc2c[nH]c3ccccc23)NC(=O)[C@H](C(C)C)NC(=O)[C@H](Cc2cccc(Cl)c2)N(C)C(=O)[C@H](C(C)C)NC(=O)[C@H](C)NC(=O)CSC[C@@H](C(=O)NCCOCCOCCOCCOCCC(N)=O)NC(=O)[C@H](Cc2ccc(O)cc2)N(C)C(=O)[C@H](Cc2cccc(C(=O)O)c2)NC(=O)[C@H](CCCNC(=N)N)NC(=O)[C@H](CCCNC(=N)N)NC(=O)[C@H]([C@@H](C)CC)NC1=O` [compound 91] ({CH2CO}-AV[NMePhe(3-Cl)]VWN[3Pal(6-NH2)]Y(Carboxymethyl)IIRR[Phe(3-COOH)][NMeY]C[PEG4]-NH2; thioether N-15) gave a Kd [1] of 1 to 100 nM.
`CC[C@H](C)[C@@H]1NC(=O)[C@H](Cc2ccc(OC)cc2)NC(=O)[C@H](Cc2ccc(N)nc2)NC(=O)[C@H](CC(N)=O)NC(=O)[C@H](Cc2c[nH]c3ncccc23)NC(=O)[C@H](C(C)C)NC(=O)[C@H](Cc2cccc(Cl)c2)N(C)C(=O)[C@H](C(C)C)NC(=O)[C@H](C)NC(=O)CSC[C@@H](C(=O)NCCOCCOCCOCCOCCC(N)=O)NC(=O)[C@H](Cc2ccc(O)cc2)N(C)C(=O)[C@H](Cc2ccncc2)NC(=O)[C@H](CCCCNC(=O)N2CCN(CC(=O)O)CC2)NC(=O)[C@H](CCC(=O)NCCOCCOCCOCCOCCOCCOCCOCCOC)NC(=O)[C@H]([C@@H](C)CC)NC1=O` [compound 237] ({CH2CO}-AV[NMePhe(3-Cl)]V[Trp(7-aza)]N[3Pal(6-NH2)]Y(Me)IIE(NH(CH2CH2O)8Me)K([CO-Piperazinyl(4-CH2COOH)])[4Pal][NMeY]C[PEG4]-NH2; thioether N-15) showed a Kd (peptide with linker, surface plasmon resonance, read-out: SPR (KD class for binding to hTfR)) of 1 to 100 nM.
`CC[C@H](C)[C@@H]1NC(=O)[C@H](Cc2ccncc2)NC(=O)[C@H](Cc2ccc(O)cc2)NC(=O)[C@H](CC(N)=O)NC(=O)[C@H](Cc2c[nH]c3ccccc23)NC(=O)[C@H](C(C)C)NC(=O)[C@H](Cc2cccc(Cl)c2)N(C)C(=O)[C@H](C(C)C)NC(=O)[C@H](C)NC(=O)CSC[C@@H](C(=O)NCCOCCOCCOCCOCCC(N)=O)NC(=O)[C@H](Cc2ccc(O)cc2)N(C)C(=O)[C@H](Cc2ccccc2)NC(=O)[C@H](CCCNC(=N)N)NC(=O)[C@H](CCCNC(=N)N)NC(=O)[C@H]([C@@H](C)CC)NC1=O` [compound 61] ({CH2CO}-AV[NMePhe(3-Cl)]VWNY[4Pal]IIRRF[NMeY]C[PEG4]-NH2; thioether N-15) showed a Kd [1] of 1 to 100 nM.
In the case of `CC[C@H](C)[C@@H]1NC(=O)[C@H](Cc2ccc(OC)cc2)NC(=O)[C@H](Cc2ccc(O)cc2)NC(=O)[C@H](CC(N)=O)NC(=O)[C@H](Cc2c[nH]c3ccccc23)N(C)C(=O)[C@H](C(C)C)NC(=O)[C@H](Cc2ccc(F)cc2)N(C)C(=O)[C@H](C(C)C)NC(=O)[C@H](C)NC(=O)CSC[C@@H](C(N)=O)NC(=O)[C@H](Cc2ccc(O)cc2)N(C)C(=O)[C@H](Cc2ccccc2)NC(=O)[C@@H](CCCNC(=N)N)NC(=O)[C@H](CCCCNC(=O)CCOCCOCCOCCOC)NC(=O)[C@H]([C@@H](C)CC)NC1=O` [compound 6], the Kd [1] is reported as 1 to 100 nM.
For `CC[C@H](C)[C@@H]1NC(=O)[C@H](Cc2ccc(OCC(=O)O)cc2)NC(=O)[C@H](Cc2ccc(O)cc2)NC(=O)[C@H](CC(N)=O)NC(=O)[C@H](Cc2cn(CC(=O)O)c3ccccc23)NC(=O)[C@H](C(C)C)NC(=O)[C@H](Cc2cccc(Cl)c2)N(C)C(=O)[C@H](C(C)C)NC(=O)[C@H](C)NC(=O)CSC[C@@H](C(=O)NCCOCCOCCOCCOCCC(N)=O)NC(=O)[C@H](Cc2ccc(O)cc2)N(C)C(=O)[C@H](Cc2ccccc2)NC(=O)[C@H](CCCCN2CCOCC2)NC(=O)[C@H](CCCCN2CCOCC2)NC(=O)[C@H]([C@@H](C)CC)NC1=O` [894_0390] ({CH2CO}-AV[NMePhe(3-Cl)]V[Trp(1-CH2COOH)]NYY(Carboxymethyl)II[Nle(6-morpholino)][Nle(6-morpholino)]F[NMeY]C[PEG4]-NH2; thioether N-15), the Kd [2] was < 1 nM.
